Source: patent EP3125690B1, “HERBICIDAL MIXTURE OF CAROTENOID BIOSYNTHESIS INHIBITING COMPOUND AND AN AHAS/ALS INHIBITING COMPOUND AND USES THEREOF” (Adama Agan Ltd., priority 2014, dated 2015)

Assays:
Assay type in all cases: in vivo
[1] = system: Persicaria lapathifolia; assay: Herbicide efficacy trial with Colby calculation, Example 3; settings: application rate 1000 (ml or gr); for % control observed 13 DAA: 13 days after application; for % control observed 38 DAA: 38 days after application; for % control observed 76 DAA: 76 days after application
Excerpt: (§1) In the context of the present subject matter, the term "synergy" is as defined by Colby S. R. in an article entitled "Calculation of the synergistic and antagonistic responses of herbicide combinations" published in the journal Weeds, 1967, 15, p. 20-22, incorporated herein by reference in its entirety. The action expected for a given combination of three active ingredients can be calculated as follows: E = X + Y−(XY)/(100) [formula] in which E represents the expected percentage of herbicidal control for the combination of the three herbicides at defined doses (for example equal to x, y and z respectively), X is the percentage of herbicidal control observed by aclonifen at a defined dose (equal to x), Y is the percentage of herbicidal control observed by imazamox at a defined dose (equal to y). When the percentage of herbicidal control observed for the combination is greater than the expected percentage, there is a synergistic effect. When the percentage of control observed for the combination is equal to the expected percentage, there is an additive effect and wherein the percentage of herbicidal control observed for the combination is lower than the expected percentage, there is an antagonistic effect.
(§2) Four herbicide treatments were compared: • a) Imazamox 20 g/l + Aclonifen 300 g/l SC formulation (Application Rate of 2.0 l/ha) • b) Imazamox 40 g/l SC + Aclonifen 600 g/l SC tank-mix (Application Rate of 1.0 l/ha + 1.0 l/ha) • c) Imazamox 40 g/l SL formulation (commercially available as Pulsar) (Application Rate of 1.0 l/ha) • d) Aclonifen 600 g/l SC formulation (Application Rate of 1.0 l/ha)
(§3) The above treatments were applied to a variety of weeds. The results are based on a 0 to 100 scale where 0 is no effect and 100 is complete control. Table 5 compares the individual applications aclonifen and imazamox with the tank-mix of the two active ingredients as well as the ready-mix formulation of aclonifen and imazamox.

[2] = system: Setaria pumila; assay: Herbicide efficacy trial with Colby calculation, Example 2; settings: application rate 1000 (ml or gr); for % control observed 41 DAA: 41 days after application; for % control observed 62 DAA: 62 days after application; for % control observed 107 DAA: 107 days after application
Excerpt: as §1
as §2, with “Three” for “Four”, “a)” for “a) Imazamox 20 g/l + Aclonifen 300 g/l SC formulation (Application Rate of 2.0 l/ha) • b)”, “b)” for “c)”, “c)” for “d)”
(§4) The above treatments were applied to a variety of weeds. The results are based on a 0 to 100 scale where 0 is no effect and 100 is complete control. Table 3-4 compares the individual applications of aclonifen and imazamox with the tank of the two active ingredients.
(§5) The trial detailed in Tables 1-4 were conducted on Sunflower crop in France, Hungary and Romania.

[3] = system: Solanum Nigrum; assay: as above; settings: application rate 1000 (ml or gr)
Excerpt: as §1
as §2, with “Three” for “Four”, “a)” for “a) Imazamox 20 g/l + Aclonifen 300 g/l SC formulation (Application Rate of 2.0 l/ha) • b)”, “b)” for “c)”, “c)” for “d)”
as §4, §5

[4] = system: Persicaria lapathifolia; assay: as above; settings: application rate 1000 (ml or gr)
Excerpt: as §1
as §2, with “Three” for “Four”, “a)” for “a) Imazamox 20 g/l + Aclonifen 300 g/l SC formulation (Application Rate of 2.0 l/ha) • b)”, “b)” for “c)”, “c)” for “d)”
as §4, §5

[5] = system: Conyza Canadensis; assay: Herbicide efficacy trial in sunflower crop, Example 1 (0 to 100 scale); settings: avg, n 1
Excerpt: as §2, with “of 1.0 1/ha) • d)” for “of 1.0 l/ha) • d)”
as §3, with “2” for “5”
as §5

[6] = system: Setaria pumila; assay: as above; settings: avg, n 1
Excerpt: as §2, with “of 1.0 1/ha) • d)” for “of 1.0 l/ha) • d)”
as §3, with “2” for “5”
as §5

[7] = system: Hibiscus trionum; assay: as above; settings: avg, n 2
Excerpt: as §2, with “of 1.0 1/ha) • d)” for “of 1.0 l/ha) • d)”
as §3, with “2” for “5”
as §5

[8] = system: Chenopodium album; assay: as above; settings: avg, n 6
Excerpt: as §2, with “of 1.0 1/ha) • d)” for “of 1.0 l/ha) • d)”
as §3, with “2” for “5”
as §5

[9] = system: Sonchus arvensis; assay: as above; settings: avg, n 1
Excerpt: as §2, with “of 1.0 1/ha) • d)” for “of 1.0 l/ha) • d)”
as §3, with “2” for “5”
as §5

[10] = system: Mercurialis annua; assay: as above; settings: avg, n 2
Excerpt: as §2, with “of 1.0 1/ha) • d)” for “of 1.0 l/ha) • d)”
as §3, with “2” for “5”
as §5

[11] = system: Calystegia sepium; assay: as above; settings: avg, n 1
Excerpt: as §2, with “of 1.0 1/ha) • d)” for “of 1.0 l/ha) • d)”
as §3, with “2” for “5”
as §5

[12] = system: Amaranthus retroflexus; assay: as above; settings: avg, n 2
Excerpt: as §2, with “of 1.0 1/ha) • d)” for “of 1.0 l/ha) • d)”
as §3, with “2” for “5”
as §5

[13] = system: Echinochloa crus-galli; assay: as above; settings: avg, n 3
Excerpt: as §2, with “of 1.0 1/ha) • d)” for “of 1.0 l/ha) • d)”
as §3, with “2” for “5”
as §5

[14] = system: Persicaria lapathifolia; assay: as above; settings: avg, n 1
Excerpt: as §2, with “of 1.0 1/ha) • d)” for “of 1.0 l/ha) • d)”
as §3, with “2” for “5”
as §5

[15] = system: Abutilon theophrasti; assay: as above; settings: avg, n 1
Excerpt: as §2, with “of 1.0 1/ha) • d)” for “of 1.0 l/ha) • d)”
as §3, with “2” for “5”
as §5

[16] = system: Ambrosia artemisiifolia; assay: as above; settings: avg, n 2
Excerpt: as §2, with “of 1.0 1/ha) • d)” for “of 1.0 l/ha) • d)”
as §3, with “2” for “5”
as §5

[17] = system: Fallopia convolvulus; assay: as above; settings: avg, n 1
Excerpt: as §2, with “of 1.0 1/ha) • d)” for “of 1.0 l/ha) • d)”
as §3, with “2” for “5”
as §5

[18] = system: Digitaria sanguinalis; assay: as above; settings: avg, n 1
Excerpt: as §2, with “of 1.0 1/ha) • d)” for “of 1.0 l/ha) • d)”
as §3, with “2” for “5”
as §5

COCc1cnc(C2=NC(C)(C(C)C)C(=O)N2)c(C(=O)O)c1 (racemic) [Imazamox SL, 2-[(RS)-4-isopropyl-4-methyl-5-oxo-2-imidazolin-2-yl]-5-methoxymethylnicotinic acid]
% control observed 13 DAA ([1]; 40 g/ha): 79.47% | % control observed 38 DAA ([1]; 40 g/ha): 58.11% | % control observed 76 DAA ([1]; 40 g/ha): 55.50% | % control observed ([2]; 40 g/ha): 81% | % control observed 41 DAA ([2]; 40 g/ha): 20.00% | % control observed 62 DAA ([2]; 40 g/ha): 90.00% | % control observed 107 DAA ([2]; 40 g/ha): 81.00% | % control observed ([3]; 40 g/ha): 79.45% | % control observed ([4]; 40 g/ha): 67.90% | Efficacy (% Control) ([5]; 40 g ai/ha, 1,00 l/ha): 37.5% | Efficacy (% Control) ([6]; 40 g ai/ha, 1,00 l/ha): 81.0% | Efficacy (% Control) ([7]; 40 g ai/ha, 1,00 l/ha): 58.1% | Efficacy (% Control) ([8]; 40 g ai/ha, 1,00 l/ha): 91.0% | Efficacy (% Control) ([9]; 40 g ai/ha, 1,00 l/ha): 84.6% | Efficacy (% Control) ([10]; 40 g ai/ha, 1,00 l/ha): 69.0% | Efficacy (% Control) ([11]; 40 g ai/ha, 1,00 l/ha): 80.5% | Efficacy (% Control) ([12]; 40 g ai/ha, 1,00 l/ha): 93.3% | Efficacy (% Control) ([13]; 40 g ai/ha, 1,00 l/ha): 85.1% | Efficacy (% Control) ([14]; 40 g ai/ha, 1,00 l/ha): 67.9% | Efficacy (% Control) ([15]; 40 g ai/ha, 1,00 l/ha): 90.5% | Efficacy (% Control) ([16]; 40 g ai/ha, 1,00 l/ha): 88.4% | Efficacy (% Control) ([17]; 40 g ai/ha, 1,00 l/ha): 92.8% | Efficacy (% Control) ([18]; 40 g ai/ha, 1,00 l/ha): 75.0%

Nc1c([N+](=O)[O-])ccc(Oc2ccccc2)c1Cl [Aclonifen SC, 2-Chlor-6-nitro-3-phenoxyanilin]
% control observed 13 DAA ([1]; 600 g/ha): 71.02% | % control observed 38 DAA ([1]; 600 g/ha): 44.14% | % control observed 76 DAA ([1]; 600 g/ha): 38.25% | % control observed ([2]; 600 g/ha): 20% | % control observed 41 DAA ([2]; 600 g/ha): 11.00% | % control observed 62 DAA ([2]; 600 g/ha): 20.00% | % control observed 107 DAA ([2]; 600 g/ha): 20.00% | % control observed ([3]; 600 g/ha): 33.33% | % control observed ([4]; 600 g/ha): 38.30% | Efficacy (% Control) ([5]; 600 g ai/ha, 1,00 l/ha): 25.0% | Efficacy (% Control) ([6]; 600 g ai/ha, 1,00 l/ha): 20.0% | Efficacy (% Control) ([7]; 600 g ai/ha, 1,00 l/ha): 81.3% | Efficacy (% Control) ([8]; 600 g ai/ha, 1,00 l/ha): 85.1% | Efficacy (% Control) ([9]; 600 g ai/ha, 1,00 l/ha): 84.7% | Efficacy (% Control) ([10]; 600 g ai/ha, 1,00 l/ha): 74.7% | Efficacy (% Control) ([11]; 600 g ai/ha, 1,00 l/ha): 66.8% | Efficacy (% Control) ([12]; 600 g ai/ha, 1,00 l/ha): 72.0% | Efficacy (% Control) ([13]; 600 g ai/ha, 1,00 l/ha): 78.1% | Efficacy (% Control) ([14]; 600 g ai/ha, 1,00 l/ha): 38.3% | Efficacy (% Control) ([15]; 600 g ai/ha, 1,00 l/ha): 50.0% | Efficacy (% Control) ([16]; 600 g ai/ha, 1,00 l/ha): 78.9% | Efficacy (% Control) ([17]; 600 g ai/ha, 1,00 l/ha): 91.0% | Efficacy (% Control) ([18]; 600 g ai/ha, 1,00 l/ha): 62.5%
